The experiment deals with cholinesterases (rat brain homogenate). Briefly: In vitro anticholinesterase inhibition test (rat brain homogenate, acetylcholine iodide substrate, automatic titration). It counts as biochemical. The conditions noted are these: anticholinesterase activity in vitro; for HillSlope: nonlinear regression (GraphPad Prism); for IC50: rat brain homogenate, substrate acetylcholine iodide. The method, then:
In vitro inhibition test was conducted as described earlier. Solutions of the prepared Fe(L1)](ttcH2)(ClO4)·EtOH·H2O (1), [Mn3(phen)6(ttc)](ClO4)3 (2), and Ni2(L2)(ttcH)(ClO4)2·6H2O·EtOH (3) complexes of appropriate concentrations (concentration range from 10^−7 to 10^−1 M; 500 µL) were added to the suspension of rat brain homogenate (10 w/v in distilled water; 500 µL), solution of sodium chloride (3 M; 2.5 mL) and water (20 mL). Subsequently, a solution of acetylcholine iodide (0.02 M; 2.0 mL) was added (=starting of the enzyme reaction). The enzyme activity was immediately determined using of automatic titrator RTS 822 (Radiometer, Bronshoj, Denmark). The IC50 values were calculated from a plot of percent inhibition of cholinesterases versus its concentration. […] Nonlinear regression was performed using software for statistical analysis GraphPad Prism version 4 for Windows (GraphPad Software, San Diego, CA, USA; www.graphpad.com).

In article PMC6272027, “Trithiocyanurate Complexes of Iron, Manganese and Nickel and Their Anticholinesterase Activity” (Molecules, 2014) one finds HillSlope and IC50 data, which are given here for four compounds.

As usually defined, the IC50 is the concentration that gives 50% inhibition. A high value points to weaker potency. Take [Mn3(phen)6(ttc)](ClO4)3 [compound 2]: the HillSlope stood at 0.2280 and the IC50 stood at 33.4 µM.

Turning to `O=S(=O)([O-])[O-].[Mn+2]` [MnSO4, reference compound], the IC50 was above 1000 µM.

`O=S(=O)([O-])[O-].[Ni+2]` [NiSO4, reference compound] registered a HillSlope of −0.3920 and an IC50 of 12900 µM.

`O=S(=O)([O-])[O-].[Fe+2]` [FeSO4, reference compound] returned an IC50 above 1000 µM.
